Measurements taken from patent US20240148728A1, “NOVEL METHOD TO BLOCK IN[…] DEATH AND IL-1BETA SECRETION CAUSED BY […] UV I[…] GENETIC AND CHEMICAL INHIBITORS OF ZAKA AND THE NLRP1 INFLAMMASOME” (priority 2021, published 2024).

Columns and labels:
Assay type in all cases: cell-based, human
[1] = system: immortalized keratinocytes (N-TERT); test: Pyroptosis / apoptosis in N-TERT keratinocytes (morphology, ASC-GFP, PI, Annexin V, immunoblot); details: for morphological hallmarks of inflammasome activation and pyroptotic cell death: membrane ballooning, ASC-GFP specks, PI uptake
Source text: (§1) The following antibodies were used in this study: cleaved PARP1 (Abclonal, #WH162766), Cleaved CASP3 (Abclonal, #WH154646), Full length GSDMD-FL (Abcam, #ab210070), IL1β p17 specific (CST, #83186S), CARD8 (Abcam, CARD8-NT: ab19485, CARD8-CT: ab241186), DPP9 (Abcam, ab226334), c-Myc (Santa Cruz Biotechnology, #sc-40), HA tag (Santa Cruz Biotechnology, #sc-805), GAPDH (Santa Cruz Biotechnology, #sc-47724), ASC (Adipogen, #AL-177), CASP1 (Santa Cruz Biotechnology, #sc-622), 11_1B (R&D systems, #AF-201), FLAG (SigmaAldrich, #F3165), NLRP1 (R&D systems, #AF6788), IL18 (Abcam ab207324), cleaved GSDMD-NT (Asp275) (Cell Signaling Technology, #36425), RPL31 (Abclonal, #WH162766), CASP7 (Abcam, ab255818), CASP8 (Abcam, ab32397), cleaved CASP3 (Cell Signaling Technology, #9664). All horseradish peroxidase (HRP)— conjugated secondary antibodies were purchased from Jackson Immunoresearch (goat anti-mouse IgG: 115-035-166; goat anti-rabbit IgG: 111-035-144; and donkey anti-goat IgG: 705-005-147). Blue-Native PAGE was carried out using the Native-PAGE system (ThermoFisher) with 10-20 μg of total lysate. For SDS-PAGE using whole cell lysates, cells were resuspended in tris-buffered saline 1% NP-40 with protease inhibitors (Thermo Scientific, #78430). Protein concentration was determined using the Bradford assay (Thermo Scientific, #23200) and […] of protein loaded, a part from cleaved GSDMD-NT visualisation where […] of protein was used. All primary antibodies were used at 250 ng/ml. Visualisation of ASC oligomerization was previously described (Robinson et al., 2020). For analysis of IL1β and IL-18 cleavage in the media by immunoblotting, samples were concentrated using filtered centrifugation (Merck, Amicon Ultra, #UFC5003BIK). Protein samples were run using immunoblotting, and then visualized using a ChemiDoc Imaging system (Bio-Rad). PhosTag SDS-PAGE was carried out using homemade 10% SDS-PAGE gel, with addition of Phos-tag Acrylamide (Wako Chemicals, AAL-107) to a final concentration of 30 μM and manganese chloride(II) (Sigma-Aldrich, #63535) to 60 μM.
N-TERT-ASC-GFP cells were seeded at a cell density of 3000 cells/well of a 96 black well plate (PerkinElmer, CellCarrier-96 Ultra, #6055300). The next morning cells were treated with chemicals for 6 h or treated in the evening for 24 h before staining. 1 hour before observing the cells on the microscope the cells were stained with 1 μg/ml dilution of propidium iodide (PI, Abcam #ab14083), 10 ng/ml dilution of Hoechst 33342 (Life Technologies, #H21492) or stained with Annexin V Alexa Flour 647 (Life technologies, #A23204) according to the manufacturer's protocol. Stained cells were then imaged on a high content screening microscope (Perkin Elmer Operetta CLS imaging system). Images were then stored and analyzed using the Harmony software (Version 6). Fluorescent and brightfield images acquired on the Operetta high content screening microscope were further analyzed using a scoring system to categorize the percentages of live, apoptotic and pyroptotic cells. For 3 fields of view per treatment the number of live cells per field was counted from the merge of the brightfield and ASC-GFP channels. Only cells which contained ASC-GFP throughout the cytoplasm and nucleus were classed as “live”. The number of pyroptotic cells was calculated using the merge of the brightfield and ASC-GFP channels. Only the cells with GFP specks were classed as “pyroptotic”. The number of apoptotic cells was calculated using the merge of the brightfield, ASC-GFP and Annexin V channels. Cells that were stained positive for Annexin V but without a GFP speck were classified as “apoptotic”. Images of ASC-GFP specks were acquired in 3 random fields in 4′,6-diaminidino-2-phenylindole (DAPI, 358 nm/461) and GFP (469 nm/525 nm) channels using the EVOS microscope (FL Auto M5000, #AM F5000) according to the manufacturer's protocol. […]

NLRP1^DR = test: NLRP1 PYD-DR1 / NLRP1^DR phosphorylation (GFP fusion, immunoblot, PhosTag SDS-PAGE) in N-TERT cells
Source text: as §1
Cells were directly harvested using Laemmli buffer, lysed with an ultrasonicator, and loaded into the Phos-tag gel to run. Once the run was completed, the polyacrylamide gel was washed in transfer buffer with 10 mM EDTA twice, subsequently washed without EDTA twice, blotted onto 0.45 μm PVDF membranes (Bio-rad), blocked with 3% milk, and incubated with primary and corresponding secondary antibodies.

293T-ASC-GFP-NLRP1 = details: for ASC-GFP speck formation, screen of cytotoxic chemicals: ANS 1 μM, LTM 1 μg/ml, STS 1 μM; for effect on ANS- and TNFα+DT-triggered NLRP1 activation: 293T-NLRP1-ASC-GFP reporter cells, BTZ 0.5 μM, MLN4924 0.25 μM
N-TERT cells [2] = test: UVB triggered cell death and IL-1beta release in N-TERT cells
Experimental: For UVA and UVB irradiation experiments, cells were seeded 24 hours prior to irradiation, and washed once in phosphate buffered saline pH 7.4 before being exposed to indicated dose of irradiation using a BIO-SUN microprocessor controlled, cooled UV irradiation system (BIO-SUN, Vilber). After exposure, PBS was replaced by keratinocyte medium and cells were incubated for indicated time.
(§2) To measure secreted cytokine and chemokine levels a human IL1β enzyme linked immunosorbent assay (ELISA) kit (BD, #557953), human IL-18 ELISA kit (MBL, #7620) or an Immune Monitoring 65-Plex Human ProcartaPlex Panel (EPX650-10065-901) were used according to manufacturer's protocols. Further analysis of Luminex or ELISA profiling of samples was performed using heatmap and PCA analysis on Clustervis (biitdotcsdotutdotee/clustvis/) [Somani et al., Proceeding of SSIC (2019)].

N-TERT cells [3] = test: Secreted IL1β / inflammasome activation in N-TERT cells; details: for effect on ANS- and TNFα+DT-triggered NLRP1 activation: N-TERTs, BTZ 0.5 μM, MLN4924 0.25 μM
Experimental: as §2, §1

NLRP1-NT = test: NLRP1 cleavage / NLRP1-NT level by immunoblot
Source text: as §1

For CC1=C[C@H]2O[C@@H]3[C@H](O)C[C@](C)([C@@]2(CO)[C@H](O)C1=O)[C@]31CO1 [DON, deoxynivalenol], the “morphological hallmarks of inflammasome activation and pyroptotic cell death” value (“morphological hallmarks” below) [1] was “caused prominent inflammasome activation and pyroptosis”, the “NLRP1^DR hyperphosphorylation” value (NLRP1^DR; NLRP1DR-GFP in N-TERT cells, PhosTag SDS-PAGE) was “also led to NLRP1^DR hyperphosphorylation” and the “band shift (phosphorylation) of PYD-DR1-GFP” value (NLRP1^DR; NLRP1 KO N-TERT cells expressing GFP-tagged PYD-DR1) was “band shift in PYD-DR1-GFP”.
In the case of C/C(=C\[C@H](C)C(=O)C[C@H](O)CC1CC(=O)NC(=O)C1)[C@@H]1OC(=O)/C=C/CC/C=C/C=C\[C@@H]1C [LTM, Lactimidomycin], the “ASC-GFP speck formation, screen of cytotoxic chemicals” value (293T-ASC-GFP-NLRP1) is reported as “identified two hits”, the “mode of cell death (apoptosis / pyroptosis)” value ([1]; Annexin V staining and PI inclusion, immunoblot markers) is reported as “caused both apoptosis and pyroptosis” and the “morphological hallmarks” value [1] is reported as “rapidly induced the morphological hallmarks of inflammasome activation and pyroptotic cell death”. The “fraction of pyroptotic cells” value ([1]; single cell level, compared with VbP) was “comparable to that induced by VbP”.
NS(=O)(=O)OC[C@@H]1C[C@@H](n2ccc3c(N[C@H]4CCc5ccccc54)ncnc32)C[C@@H]1O [MLN4924, ((1S,2S,4R)-4-(4-(((S)-2,3-dihydro-1H-inden-1-yl)amino)-7H-pyrrolo[2,3-d]pyrimidin-7-yl)-2-hydroxycyclopentyl)methyl sulfamate] was tested, and the “effect on UVB-dependent NLRP1 activation” value (N-TERT cells [2]) was “abrogated”, the “effect on UVB triggered cell death (PI positive cells)” value (N-TERT cells [2]; 18-hour incubation) was “blocks UVB triggered cell death and IL-1beta release” and the “effect on UVB triggered IL-1beta release” value (N-TERT cells [2]; IL1β ELISA of cell media) was “blocks UVB triggered cell death and IL-1beta release”. The “effect on ANS- and TNFα+DT-triggered NLRP1 activation” value (N-TERT cells [3]) was “abrogated ANS- and TNFα+DT-triggered NLRP1 activation”, the “effect on ribotoxin-triggered NLRP1-NT destabilization” value (NLRP1-NT) was “could be blocked” and the “effect on ANS- and TNFα+DT-triggered NLRP1 activation” value (293T-ASC-GFP-NLRP1) was “abrogated ANS- and TNFα+DT-triggered NLRP1 activation”.
In the case of Cc1cn(-c2cc(NC(=O)c3ccc(C)c(Nc4nccc(-c5cccnc5)n4)c3)cc(C(F)(F)F)c2)cn1 [Nilotinib, 4-methyl-N-[3-(4-methylimidazol-1-yl)-5-(trifluoromethyl)phenyl]-3-[(4-pyridin-3-ylpyrimidin-2-yl)amino]benzamide], the “effect on VbP-triggered pyroptosis” value (N-TERT cells [3]) is reported as “had no discernible effect on VbP-triggered pyroptosis”, the “effect on ANS- and DT-dependent inflammasome activation (ASC oligomerization, IL1β secretion)” value (N-TERT cells [3]; wild-type N-TERT cells) is reported as “abrogated all measures of ANS- and DT-dependent inflammasome activation” and the “effect on ANS-dependent ASC-GFP speck formation” value (293T-ASC-GFP-NLRP1; Nilotinib 0.1 μM) is reported as “abrogated all measures of ANS- and DT-dependent inflammasome activation”. For the same molecule, the “NLRP1 PYD-DR1 phosphorylation under inhibitor” value (NLRP1^DR) was “loss of NLRP1 PYD-DR1 phosphorylation”.
For CN[C@@H]1C[C@H]2O[C@@](C)([C@@H]1OC)n1c3ccccc3c3c4c(c5c6ccccc6n2c5c31)C(=O)NC4 [STS, Staurosporine], the “ASC-GFP speck formation, screen of cytotoxic chemicals” value (293T-ASC-GFP-NLRP1) was “failed to induce ASC-GFP specks”.
CCCn1/c(=N/C(=O)c2cccc(C(N)=O)c2)[nH]c2ccccc21 [TAKinib] was tested, and the “effect on ANS-induced IL1β secretion” value (N-TERT cells [3]; selective TAK1 inhibitor) was “does not have an effect on ANS-induced IL1β secretion”.
For CN(CC[C@H](N)CC(=O)N[C@H]1C=C[C@H](n2ccc(N)nc2=O)O[C@@H]1C(=O)O)C(=N)N [blasticidin, Blasticidin], the “morphological hallmarks” value [1] was “none of the inhibitors that block the ribosome at the pre-elongation stages, including harringtonin, blasticidin and G418 caused any pyroptosis”.
With CC(C)C[C@H](NC(=O)[C@H](Cc1ccccc1)NC(=O)c1cnccn1)B(O)O [bortezomib, [(1R)-3-methyl-1-[[(2S)-3-phenyl-2-(pyrazine-2-carbonylamino)propanoyl]amino]butyl]boronic acid] the “effect on ANS- and TNFα+DT-triggered NLRP1 activation” value (N-TERT cells [3]) was “abrogated ANS- and TNFα+DT-triggered NLRP1 activation”, the “effect on ribotoxin-triggered NLRP1-NT destabilization” value (NLRP1-NT) was “could be blocked” and the “effect on ANS- and TNFα+DT-triggered NLRP1 activation” value (293T-ASC-GFP-NLRP1) was “abrogated ANS- and TNFα+DT-triggered NLRP1 activation”.
In the case of CC[C@H]1CN2CCc3cc(OC)c(OC)cc3[C@@H]2C[C@@H]1C[C@H]1NCCc2cc(OC)c(OC)cc21 [emetine], the “effect on ANS-induced IL1β secretion” value (N-TERT cells [3]; 150 μM emetine) is reported as “completely abrogated”.
COC(=O)C[C@](O)(CCC(C)(C)O)C(=O)O[C@@H]1C(OC)=C[C@]23CCCN2CCc2cc4c(cc2[C@H]13)OCO4 [harringtonin, Harringtonine] was tested, and the “morphological hallmarks” value [1] was “none of the inhibitors that block the ribosome at the pre-elongation stages, including harringtonin, blasticidin and G418 caused any pyroptosis”.
